Patent US7192906B2, “Substituted pyrazole derivatives, production process thereof, and herbicide compositions containing the derivatives” (SDS Biotech K.K., priority 2001, dated 2007)

Tests used:
Type in all cases: in vivo
[1] = test system: Ammannia multiflora; test: Test Example 3 paddy field treatment; details: active ingredient 1 kg per hectare, index 0-5
Experimental: (§1) A plastic pot of 130 cm^2 was filled with paddy soil, and soil puddling was carried out to adjust the submerged depth to 4 cm. Subsequently, seeds of Echinochloa crusgalli, Monochoria vaginalis, Ammannia multiflora and Scirpus juncoides were sowed, and rice (Oryza sative, variety: Koshihikari) of two-leaf period was transplanted by 2 rice plants of 1 stub per pot at a depth of 3 cm. On the 10th day after the transplantation, the wettable powder prepared in Formulation Example 1 was diluted with water such that the amount of the active ingredient became 1 kg per hectare, and then dropped to diffuse on the water surface. On the 21st day after the dropping, observation and evaluation were carried out according to the aforesaid criteria.
(§2) Herbicidal activity was evaluated based on the following criteria.
(§3) • 5: herbicidal effect of not less than 90%, or phytotoxicity of 90% or more • 4: herbicidal effect of not less than 70% and less than 90%, or phytotoxicity of 70% or more and less than 90% • 3: herbicidal effect of not less than 50% and less than 70%, or phytotoxicity of 50% or more and less than 70% • 2: herbicidal effect of not less than 30% and less than 50%, or phytotoxicity of 30% or more and less than 50% • 1: herbicidal effect of not less than 10% and less than 30%, or phytotoxicity of 10% or more and less than 30% • 0: herbicidal effect of not less than 0% and less than 10%, or phytotoxicity of 0% or more and less than 10%

[2] = test system: Echinochloa crusgalli; test: Test Example 3 paddy field treatment; details: active ingredient 1 kg per hectare, index 0-5
Experimental: as §1, §2, §3

[3] = test system: Monochoria vaginalis; test: Test Example 3 paddy field treatment; details: active ingredient 1 kg per hectare, index 0-5
Experimental: as §1, §2, §3

[4] = test system: Scirpus juncoides; test: Test Example 3 paddy field treatment; details: active ingredient 1 kg per hectare, index 0-5
Experimental: as §1, §2, §3

[5] = test system: Rice (Oryza sativa); test: Test Example 3 paddy field treatment, crop phytotoxicity; details: active ingredient 1 kg per hectare, index 0-5; for Herbicidal activity OS (phytotoxicity to rice): paddy field treatment, transplanted rice Koshihikari, wettable powder, 21st day after the dropping; for Herbicidal activity (phytotoxicity) OS: Table 6, paddy field treatment, transplanted rice, 21st day after dropping
Experimental: as §1, §2, §3

[6] = test system: Chenopodium album; test: Test Example 1 upland field foliage treatment; details: Table 4, upland field foliage treatment, index 0-5
Experimental: (§4) A plastic pot of 130 cm^2 was filled with upland soil. Subsequently, weed seeds of Setaria viridis, Digitaria adscendens, Chenopodium album and Stellaria media, and crop seeds of soybean (Glycine max) and wheat (Triticum aestivum), were sowed and covered with soil of about 1 cm thickness. On the 14th day after the sowing, the wettable powder prepared in Formulation Example 1 was diluted with water such that the amount of the active ingredient became 1 kg per hectare, and then uniformly applied to the plant leaf surfaces. On the 21st day after the application, observation and evaluation were carried out according to the criteria described below.
as §2, §3

[7] = test system: Digitaria adscendens; test: Test Example 1 upland field foliage treatment; details: Table 4, upland field foliage treatment, index 0-5
Experimental: as §4, §2, §3

[8] = test system: Setaria viridis; test: Test Example 1 upland field foliage treatment; details: Table 4, upland field foliage treatment, index 0-5
Experimental: as §4, §2, §3

[9] = test system: Stellaria media; test: Test Example 1 upland field foliage treatment; details: Table 4, upland field foliage treatment, index 0-5
Experimental: as §4, §2, §3

[10] = test system: soybean (Glycine max); test: Test Example 1 upland field foliage treatment, crop phytotoxicity; details: Table 4, upland field foliage treatment, index 0-5
Experimental: as §4, §2, §3

[11] = test system: wheat (Triticum aestivum); test: as above; details: Table 4, upland field foliage treatment, index 0-5
Experimental: as §4, §2, §3

[12] = paddy field treatment, wettable powder, 21st day after the dropping
[13] = Table 6, paddy field treatment, 21st day after dropping

SMILES	Herbicidal activity AM [1, 12]	Herbicidal activity EC [2, 12]	Herbicidal activity MV [3, 12]	Herbicidal activity SJ [4, 12]	Herbicidal activity OS (phytotoxicity to rice) [5]	Herbicidal activity AM [1, 13]	Herbicidal activity EC [2, 13]	Herbicidal activity MV [3, 13]	Herbicidal activity SJ [4, 13]	Herbicidal activity (phytotoxicity) OS [5]	other results
CON=C(Cn1cc(C)c(-c2ccccc2)n1)C(=O)NC(C)c1ccccc1 (stereo not drawn) [Compound 31]	4 (herbicidal effect of not less than 70% and less than 90%, or phytotoxicity of 70% or more and less than 90%)	3 (herbicidal effect of not less than 50% and less than 70%, or phytotoxicity of 50% or more and less than 70%)	5 (herbicidal effect of not less than 90%, or phytotoxicity of 90% or more)	4 (herbicidal effect of not less than 70% and less than 90%, or phytotoxicity of 70% or more and less than 90%)	0 (herbicidal effect of not less than 0% and less than 10%, or phytotoxicity of 0% or more and less than 10%)						
CNC(=O)C(Cn1cc(C)c(-c2ccccc2C)n1)=NOC [Compound 35]	4 (herbicidal effect of not less than 70% and less than 90%, or phytotoxicity of 70% or more and less than 90%)	5 (herbicidal effect of not less than 90%, or phytotoxicity of 90% or more)	4 (herbicidal effect of not less than 70% and less than 90%, or phytotoxicity of 70% or more and less than 90%)	4 (herbicidal effect of not less than 70% and less than 90%, or phytotoxicity of 70% or more and less than 90%)	0 (herbicidal effect of not less than 0% and less than 10%, or phytotoxicity of 0% or more and less than 10%)						
CNC(=O)C(Cn1cc(C)c(-c2ccc(C(C)C)cc2)n1)=NOC [Compound 38]	5 (herbicidal effect of not less than 90%, or phytotoxicity of 90% or more)	5 (herbicidal effect of not less than 90%, or phytotoxicity of 90% or more)	5 (herbicidal effect of not less than 90%, or phytotoxicity of 90% or more)	5 (herbicidal effect of not less than 90%, or phytotoxicity of 90% or more)	0 (herbicidal effect of not less than 0% and less than 10%, or phytotoxicity of 0% or more and less than 10%)						
CNC(=O)C(Cn1cc(C)c(-c2ccc(C(F)(F)F)cc2)n1)=NOC [Compound 40]	5 (herbicidal effect of not less than 90%, or phytotoxicity of 90% or more)	5 (herbicidal effect of not less than 90%, or phytotoxicity of 90% or more)	5 (herbicidal effect of not less than 90%, or phytotoxicity of 90% or more)	5 (herbicidal effect of not less than 90%, or phytotoxicity of 90% or more)	0 (herbicidal effect of not less than 0% and less than 10%, or phytotoxicity of 0% or more and less than 10%)						
CNC(=O)C(Cn1cc(C)c(-c2cccc(Br)c2)n1)=NOC [Compound 49]	5 (herbicidal effect of not less than 90%, or phytotoxicity of 90% or more)	5 (herbicidal effect of not less than 90%, or phytotoxicity of 90% or more)	5 (herbicidal effect of not less than 90%, or phytotoxicity of 90% or more)	5 (herbicidal effect of not less than 90%, or phytotoxicity of 90% or more)	1 (herbicidal effect of not less than 10% and less than 30%, or phytotoxicity of 10% or more and less than 30%)						
CNC(=O)C(Cn1cc(C)c(-c2c(F)cccc2F)n1)=NOC [Compound 58, 2-methoxyimino-3-((2′,6′-difluorophenyl)-4-methyl-pyrazole)-1-yl-propanoic acid-N-methylamide]						5 (herbicidal effect of not less than 90%, or phytotoxicity of 90% or more)	5 (herbicidal effect of not less than 90%, or phytotoxicity of 90% or more)	5 (herbicidal effect of not less than 90%, or phytotoxicity of 90% or more)	5 (herbicidal effect of not less than 90%, or phytotoxicity of 90% or more)	1 (herbicidal effect of not less than 10% and less than 30%, or phytotoxicity of 10% or more and less than 30%)	
CNC(=O)C(Cn1cc(C)c(-c2cc(F)cc(F)c2)n1)=NOC [Compound 60]						5 (herbicidal effect of not less than 90%, or phytotoxicity of 90% or more)	5 (herbicidal effect of not less than 90%, or phytotoxicity of 90% or more)	5 (herbicidal effect of not less than 90%, or phytotoxicity of 90% or more)	5 (herbicidal effect of not less than 90%, or phytotoxicity of 90% or more)	0 (herbicidal effect of not less than 0% and less than 10%, or phytotoxicity of 0% or more and less than 10%)	
CNC(=O)C(Cn1cc(C)c(-c2cc(Cl)ccc2Cl)n1)=NOC [Compound 73]						4 (herbicidal effect of not less than 70% and less than 90%, or phytotoxicity of 70% or more and less than 90%)	5 (herbicidal effect of not less than 90%, or phytotoxicity of 90% or more)	5 (herbicidal effect of not less than 90%, or phytotoxicity of 90% or more)	4 (herbicidal effect of not less than 70% and less than 90%, or phytotoxicity of 70% or more and less than 90%)	0 (herbicidal effect of not less than 0% and less than 10%, or phytotoxicity of 0% or more and less than 10%)	
CNC(=O)C(Cn1cc(C)c(-c2ccc(OC)c(F)c2)n1)=NOC [Compound 76]						5 (herbicidal effect of not less than 90%, or phytotoxicity of 90% or more)	5 (herbicidal effect of not less than 90%, or phytotoxicity of 90% or more)	5 (herbicidal effect of not less than 90%, or phytotoxicity of 90% or more)	5 (herbicidal effect of not less than 90%, or phytotoxicity of 90% or more)	0 (herbicidal effect of not less than 0% and less than 10%, or phytotoxicity of 0% or more and less than 10%)	
CNC(=O)C(Cn1cc(C)c(-c2ccc(C(F)(F)F)cc2F)n1)=NOC [Compound 85]											Herbicidal activity CA: Chenopodium album [6]: 5 (herbicidal effect of not less than 90%, or phytotoxicity of 90% or more); Herbicidal activity DA: Digitaria adscendens [7]: 4 (herbicidal effect of not less than 70% and less than 90%, or phytotoxicity of 70% or more and less than 90%); Herbicidal activity SV: Setaria viridis [8]: 4 (herbicidal effect of not less than 70% and less than 90%, or phytotoxicity of 70% or more and less than 90%); Herbicidal activity SM: Stellaria media [9]: 5 (herbicidal effect of not less than 90%, or phytotoxicity of 90% or more); Herbicidal activity (phytotoxicity) GM: Soybean (Glycine max) [10]: 0 (herbicidal effect of not less than 0% and less than 10%, or phytotoxicity of 0% or more and less than 10%); Herbicidal activity (phytotoxicity) TA: Wheat (Triticum aestivum) [11]: 0 (herbicidal effect of not less than 0% and less than 10%, or phytotoxicity of 0% or more and less than 10%)
